Consider two molecules from ChEMBL document CHEMBL1140165, “Rotationally constrained 2,4-diamino-5,6-disubstituted pyrimidines: a new class of histamine H4 receptor antagonists with improved druglikeness and in vivo efficacy in pain and inflammation models” (J Med Chem, 2008).

Calls of active or inactive are those of the source. No cut-off for these calls is given here.

The target in data set [1] is T1, Histamine H4 receptor (Rattus norvegicus, UniProt Q91ZY1). The experiment in a line: Antagonist activity at rat histamine H4 receptor expressed in HEK293 cells assessed as inhibition of histamine-induced intracellular calcium elevation by FLIPR assay. The class given is functional, cell-based.
T1 sequence (Q91ZY1 whole entry): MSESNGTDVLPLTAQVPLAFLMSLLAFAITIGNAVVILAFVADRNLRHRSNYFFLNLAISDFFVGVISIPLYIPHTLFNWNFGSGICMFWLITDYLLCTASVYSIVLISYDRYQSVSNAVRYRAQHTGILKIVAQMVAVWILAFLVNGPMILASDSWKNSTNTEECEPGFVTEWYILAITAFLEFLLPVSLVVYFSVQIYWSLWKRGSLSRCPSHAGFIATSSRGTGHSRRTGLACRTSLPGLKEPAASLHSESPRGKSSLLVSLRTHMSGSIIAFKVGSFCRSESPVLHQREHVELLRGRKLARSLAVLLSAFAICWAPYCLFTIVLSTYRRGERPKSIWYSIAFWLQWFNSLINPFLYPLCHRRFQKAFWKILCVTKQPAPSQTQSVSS
In data set [2] the test system is Liver microsomes. The experiment in a line: Metabolic stability in rat liver microsomes. The class given is ADME, Microsome. (Liver microsomes are vesicles of endoplasmic reticulum, rich in cytochrome P450 enzymes.)
The target of data set [3] is T2, Histamine H4 receptor (Homo sapiens, UniProt Q9H3N8). In words: Displacement of [3H]histamine from human histamine H4 receptor expressed in HEK293 cells. The settings on record: read-out: Ki. The class given is cell-based.
T2 sequence (Q9H3N8 whole entry): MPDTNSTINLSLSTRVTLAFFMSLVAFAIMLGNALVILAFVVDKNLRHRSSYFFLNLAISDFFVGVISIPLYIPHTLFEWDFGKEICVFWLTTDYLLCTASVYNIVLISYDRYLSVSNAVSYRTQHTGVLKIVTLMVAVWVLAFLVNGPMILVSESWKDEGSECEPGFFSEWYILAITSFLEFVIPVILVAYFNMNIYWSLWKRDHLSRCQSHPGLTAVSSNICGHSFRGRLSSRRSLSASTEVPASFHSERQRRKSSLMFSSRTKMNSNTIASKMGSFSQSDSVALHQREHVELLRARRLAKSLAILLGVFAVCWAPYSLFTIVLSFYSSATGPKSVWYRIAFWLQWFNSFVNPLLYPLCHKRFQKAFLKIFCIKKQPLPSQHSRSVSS
Data set [4] can be described thus: Protein binding in human. The class given is ADME, organism-based. The settings on record: in vivo, read-out: PB (converted).
For data set [5], the target named is Prostaglandin G/H synthase 1 (Homo sapiens) (UniProt P23219). In words: Binding affinity at COX1.
Sequence of Prostaglandin G/H synthase 1 (Homo sapiens) (P23219 whole entry): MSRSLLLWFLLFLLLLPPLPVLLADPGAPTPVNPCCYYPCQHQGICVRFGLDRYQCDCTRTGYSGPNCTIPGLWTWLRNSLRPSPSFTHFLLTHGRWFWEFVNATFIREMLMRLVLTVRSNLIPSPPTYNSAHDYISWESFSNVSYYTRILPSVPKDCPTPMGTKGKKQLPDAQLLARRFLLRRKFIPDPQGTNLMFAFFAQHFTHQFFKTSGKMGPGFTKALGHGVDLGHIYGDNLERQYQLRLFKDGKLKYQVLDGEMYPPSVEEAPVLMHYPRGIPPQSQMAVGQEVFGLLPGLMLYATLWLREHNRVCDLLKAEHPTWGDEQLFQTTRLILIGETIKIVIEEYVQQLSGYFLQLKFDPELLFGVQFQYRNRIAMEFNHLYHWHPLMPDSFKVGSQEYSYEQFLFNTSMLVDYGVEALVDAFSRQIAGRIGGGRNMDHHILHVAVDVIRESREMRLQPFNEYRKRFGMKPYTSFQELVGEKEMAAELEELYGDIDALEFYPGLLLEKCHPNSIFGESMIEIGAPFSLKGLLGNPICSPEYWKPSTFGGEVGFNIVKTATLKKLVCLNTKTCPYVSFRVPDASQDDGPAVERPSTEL
Data set [6] in a line: Selectivity ratio of Ki for human histamine H4 receptor to Ki for 5HT1A receptor.
Data set [7] concerns the target Kappa-type opioid receptor (Homo sapiens) (UniProt P41145). The experiment in a line: Binding affinity to kappa opioid receptor.
In data set [8] the test system is Mus musculus. The experiment in a line: Inhibition of clobenpropit-induced itching in ip dosed CD1/ICR mouse assessed as blockade of scratching in hind paw for 25 mins pretreated 30 mins before clobenpropit challenge. In kind it is functional.
Data set [9] concerns Mus musculus. In words: Antiinflammatory activity against ip dosed BALB/c mouse assessed as inhibition of zymosan-induced peritonitis after 2 hrs pretreated 30 mins before zymosan challenge. In kind it is functional.
The nature of data set [10]: Ratio of drug level in brain to plasma in rat at 10 mg/kg, iv after 30 mins. The arrangement: dose 10 mg/kg, route intravenous. In kind it is ADME, organism-based.
The next data set deals with Cytochrome P450 2C9 (Homo sapiens, UniProt P11712). In words: Inhibition of CYP2C9 upto 10 uM. The class given is ADME.
Sequence of Cytochrome P450 2C9 (P11712 whole entry): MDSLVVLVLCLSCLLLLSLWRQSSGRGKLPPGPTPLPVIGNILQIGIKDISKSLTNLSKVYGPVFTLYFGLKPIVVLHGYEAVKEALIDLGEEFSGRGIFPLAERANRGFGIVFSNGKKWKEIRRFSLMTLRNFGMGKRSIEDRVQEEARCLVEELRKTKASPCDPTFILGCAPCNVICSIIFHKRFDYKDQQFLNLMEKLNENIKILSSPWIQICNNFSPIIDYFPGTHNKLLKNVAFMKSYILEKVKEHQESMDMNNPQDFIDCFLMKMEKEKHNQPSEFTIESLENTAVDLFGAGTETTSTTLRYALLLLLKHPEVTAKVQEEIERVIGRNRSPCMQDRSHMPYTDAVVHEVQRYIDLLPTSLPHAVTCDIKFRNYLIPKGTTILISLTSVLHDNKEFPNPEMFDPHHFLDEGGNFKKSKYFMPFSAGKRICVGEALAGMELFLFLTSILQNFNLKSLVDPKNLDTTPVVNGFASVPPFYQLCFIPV
The nature of data set [11]: Selectivity ratio of Ki for human histamine H4 receptor to Ki for histamine H1 receptor.
The species named for another data set is Homo sapiens. The experiment in a line: Selectivity ratio of Ki for human histamine H4 receptor to Ki for human histamine H3 receptor.
Data set [12] in a line: Protein binding in rat. The settings on record: in vivo, read-out: PB (converted). The class given is ADME, organism-based.
A short description of data set [13]: Selectivity ratio of Ki for human histamine H4 receptor to Ki for adrenergic alpha1 receptor.
For data set [14], the system named is Rattus norvegicus. The experiment in a line: Antinociceptive efficacy in spinal nerve ligated Sprague-Dawley rat assessed as reduction of neuropathic pain in left side paw at 100 umol/kg, ip administered 30 mins before testing relative to control. In kind it is functional.
Data set [15] can be described thus: Selectivity ratio of Ki for human histamine H4 receptor to Ki for histamine H2 receptor.
Data set [16] relates to Rattus norvegicus. The experiment in a line: Antinociceptive efficacy in rat assessed as inhibition of carrageenan-induced inflammatory pain in paw at 100 umol/kg, ip after 30 mins by hotbox assay relative to control. In kind it is functional. In general terms: Carrageenan injected into the paw causes an acute inflammation.
Data set [17] has as its target T3, Prostaglandin G/H synthase 2 (Homo sapiens) (UniProt P35354).
T3 sequence (whole entry): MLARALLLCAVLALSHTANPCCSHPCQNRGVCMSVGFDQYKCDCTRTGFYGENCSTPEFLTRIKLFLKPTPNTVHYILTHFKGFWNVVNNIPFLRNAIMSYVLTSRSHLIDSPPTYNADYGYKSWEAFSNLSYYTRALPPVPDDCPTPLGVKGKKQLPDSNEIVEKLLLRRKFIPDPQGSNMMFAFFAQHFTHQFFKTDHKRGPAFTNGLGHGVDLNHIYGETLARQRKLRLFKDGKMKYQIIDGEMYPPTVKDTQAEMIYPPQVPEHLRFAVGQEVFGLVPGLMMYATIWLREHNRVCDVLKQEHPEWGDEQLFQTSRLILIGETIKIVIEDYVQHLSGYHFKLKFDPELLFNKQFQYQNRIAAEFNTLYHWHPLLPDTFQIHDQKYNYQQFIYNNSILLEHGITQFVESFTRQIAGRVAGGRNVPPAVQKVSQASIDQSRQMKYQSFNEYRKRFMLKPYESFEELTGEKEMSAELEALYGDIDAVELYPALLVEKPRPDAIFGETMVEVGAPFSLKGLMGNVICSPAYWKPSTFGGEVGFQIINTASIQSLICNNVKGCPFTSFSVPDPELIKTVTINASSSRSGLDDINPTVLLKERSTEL
The experiment in a line: Binding affinity at COX2.

In data set [18] the target is T2, Histamine H4 receptor. Conditions: HEK293.
A short description of data set [19]: Selectivity ratio of Ki for human histamine H4 receptor to Ki for 5HT2A receptor.
Data set [20] in a line: Selectivity ratio of Ki for human histamine H4 receptor to Ki for dopamine D2 receptor.
Data set [21] in a line: Metabolic stability in mouse liver microsomes. The class given is ADME, Microsome.
Data set [22] addresses T1, Histamine H4 receptor. The experiment in a line: Displacement of [3H]histamine from rat histamine H4 receptor expressed in HEK293 cells. The class given is cell-based. In general terms: Loss of bound radioactivity is the signal in a displacement assay; it reports binding, not function.
The target in the next data set is Cytochrome P450 3A4 (Homo sapiens, UniProt P08684). In words: Inhibition of CYP3A4 upto 10 uM. In kind it is ADME.
Sequence of Cytochrome P450 3A4 (P08684 whole entry): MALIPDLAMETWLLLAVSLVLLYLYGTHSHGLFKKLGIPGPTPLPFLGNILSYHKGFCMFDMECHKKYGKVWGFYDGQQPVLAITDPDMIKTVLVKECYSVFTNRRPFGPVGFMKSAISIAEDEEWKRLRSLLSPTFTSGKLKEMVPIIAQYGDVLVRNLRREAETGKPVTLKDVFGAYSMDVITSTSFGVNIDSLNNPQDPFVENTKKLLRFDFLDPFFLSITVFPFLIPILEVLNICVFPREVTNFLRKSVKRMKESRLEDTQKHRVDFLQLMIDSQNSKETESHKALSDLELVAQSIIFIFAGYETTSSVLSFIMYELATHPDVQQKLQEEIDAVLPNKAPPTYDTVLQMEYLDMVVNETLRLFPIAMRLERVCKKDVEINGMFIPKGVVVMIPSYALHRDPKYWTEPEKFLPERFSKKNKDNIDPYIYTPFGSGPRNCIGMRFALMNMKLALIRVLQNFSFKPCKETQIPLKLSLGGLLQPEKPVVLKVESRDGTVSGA
Another data set addresses Cytochrome P450 2D6 (Homo sapiens, UniProt P10635). The experiment in a line: Inhibition of CYP2D6 upto 10 uM. In kind it is ADME.
The target of data set [23] is Cannabinoid receptor 1 (Homo sapiens) (UniProt P21554). In words: Binding affinity to CB1 receptor.
Sequence of Cannabinoid receptor 1 (Homo sapiens) (P21554 whole entry): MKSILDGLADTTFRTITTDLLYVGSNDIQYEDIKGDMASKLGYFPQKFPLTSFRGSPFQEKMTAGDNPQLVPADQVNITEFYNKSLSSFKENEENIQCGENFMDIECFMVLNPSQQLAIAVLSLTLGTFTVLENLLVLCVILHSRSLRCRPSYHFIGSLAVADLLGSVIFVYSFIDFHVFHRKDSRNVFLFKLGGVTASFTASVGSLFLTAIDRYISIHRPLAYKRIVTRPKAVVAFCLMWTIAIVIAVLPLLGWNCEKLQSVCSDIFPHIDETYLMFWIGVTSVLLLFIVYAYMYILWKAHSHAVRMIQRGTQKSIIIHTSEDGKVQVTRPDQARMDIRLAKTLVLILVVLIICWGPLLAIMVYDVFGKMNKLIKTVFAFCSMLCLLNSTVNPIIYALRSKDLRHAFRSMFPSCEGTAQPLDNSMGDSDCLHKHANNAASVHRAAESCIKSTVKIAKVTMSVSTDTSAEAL
In data set [24] the target is Cannabinoid receptor 2 (Homo sapiens) (UniProt P34972). The experiment in a line: Binding affinity to CB2 receptor.
Sequence of Cannabinoid receptor 2 (Homo sapiens) (P34972 whole entry): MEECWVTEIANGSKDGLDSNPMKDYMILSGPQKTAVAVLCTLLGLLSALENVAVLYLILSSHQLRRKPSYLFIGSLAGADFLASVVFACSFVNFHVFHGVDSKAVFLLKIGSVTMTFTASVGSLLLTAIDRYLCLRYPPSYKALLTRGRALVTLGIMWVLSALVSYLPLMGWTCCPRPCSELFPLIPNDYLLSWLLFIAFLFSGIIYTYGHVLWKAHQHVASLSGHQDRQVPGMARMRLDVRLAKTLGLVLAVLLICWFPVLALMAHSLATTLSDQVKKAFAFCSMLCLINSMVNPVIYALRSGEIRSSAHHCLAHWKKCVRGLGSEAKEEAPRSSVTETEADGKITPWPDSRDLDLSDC
In data set [25] the target is Delta-type opioid receptor (Homo sapiens) (UniProt P41143). In words: Binding affinity to delta opioid receptor.
Sequence of Delta-type opioid receptor (Homo sapiens) (P41143 whole entry): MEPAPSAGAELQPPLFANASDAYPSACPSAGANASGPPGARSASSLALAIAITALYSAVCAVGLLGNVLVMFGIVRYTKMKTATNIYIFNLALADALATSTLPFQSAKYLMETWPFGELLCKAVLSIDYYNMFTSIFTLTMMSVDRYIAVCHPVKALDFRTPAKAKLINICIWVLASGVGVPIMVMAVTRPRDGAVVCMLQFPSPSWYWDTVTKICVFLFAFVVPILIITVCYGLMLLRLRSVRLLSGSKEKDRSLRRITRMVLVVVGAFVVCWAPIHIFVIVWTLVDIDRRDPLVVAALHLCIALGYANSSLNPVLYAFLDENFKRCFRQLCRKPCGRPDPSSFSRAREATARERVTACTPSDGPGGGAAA
Data set [26] addresses T4, Histamine H4 receptor (Mus musculus, UniProt Q91ZY2).
T4 sequence (Q91ZY2 whole entry): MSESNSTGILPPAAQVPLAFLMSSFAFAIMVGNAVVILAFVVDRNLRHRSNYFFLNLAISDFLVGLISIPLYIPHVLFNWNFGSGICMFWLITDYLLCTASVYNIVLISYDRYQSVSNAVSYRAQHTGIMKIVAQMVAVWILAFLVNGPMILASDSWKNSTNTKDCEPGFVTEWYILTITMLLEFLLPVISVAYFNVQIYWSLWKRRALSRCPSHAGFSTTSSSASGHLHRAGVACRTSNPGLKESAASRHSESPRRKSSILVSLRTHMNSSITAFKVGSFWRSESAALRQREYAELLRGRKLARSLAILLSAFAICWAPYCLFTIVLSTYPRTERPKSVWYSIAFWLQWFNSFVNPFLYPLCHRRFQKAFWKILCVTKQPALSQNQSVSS
The experiment in a line: Antagonist activity at mouse histamine H4 receptor expressed in HEK293 cells assessed as inhibition of histamine-induced intracellular calcium elevation by FLIPR assay. The class given is functional, cell-based.

The target in data set [27] is Mu-type opioid receptor (Homo sapiens) (UniProt P35372). In words: Binding affinity to mu opioid receptor.
Sequence of Mu-type opioid receptor (Homo sapiens) (P35372 whole entry): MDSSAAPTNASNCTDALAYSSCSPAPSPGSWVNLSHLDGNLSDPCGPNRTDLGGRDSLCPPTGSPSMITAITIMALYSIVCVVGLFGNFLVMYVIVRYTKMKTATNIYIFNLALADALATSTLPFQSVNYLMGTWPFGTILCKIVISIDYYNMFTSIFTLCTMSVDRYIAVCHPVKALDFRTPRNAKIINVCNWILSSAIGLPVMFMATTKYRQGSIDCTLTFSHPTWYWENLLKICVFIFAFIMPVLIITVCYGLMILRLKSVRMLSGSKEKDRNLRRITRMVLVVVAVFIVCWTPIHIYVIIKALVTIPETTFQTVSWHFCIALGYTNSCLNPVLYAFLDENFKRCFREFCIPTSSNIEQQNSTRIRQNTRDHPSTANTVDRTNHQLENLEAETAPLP
Data set [28] in a line: Selectivity ratio of Ki for human histamine H4 receptor to Ki for 5HT1D receptor.
The test system of data set [29] is Rattus norvegicus. In words: Antinociceptive efficacy in spinal nerve ligated Sprague-Dawley rat assessed as reduction of neuropathic pain in left side paw at 300 umol/kg, ip administered 30 mins before testing relative to control. In kind it is functional.
The subject of data set [30] is Liver microsomes. In words: Metabolic stability in human liver microsomes. In kind it is ADME, Microsome.
Another data set relates to BMMC. The experiment in a line: Blockade of histamine-induced morphological changes in BALB/c mouse BMMC by flow cytometry. In kind it is functional, cell-based.
Data set [31] deals with Rattus norvegicus. In words: Antinociceptive efficacy in spinal nerve ligated Sprague-Dawley rat assessed as reduction of neuropathic pain in left side paw at 500 umol/kg, ip administered 30 mins before testing relative to control. The class given is functional.

Sequence of Cytochrome P450 2D6 (P10635 whole entry): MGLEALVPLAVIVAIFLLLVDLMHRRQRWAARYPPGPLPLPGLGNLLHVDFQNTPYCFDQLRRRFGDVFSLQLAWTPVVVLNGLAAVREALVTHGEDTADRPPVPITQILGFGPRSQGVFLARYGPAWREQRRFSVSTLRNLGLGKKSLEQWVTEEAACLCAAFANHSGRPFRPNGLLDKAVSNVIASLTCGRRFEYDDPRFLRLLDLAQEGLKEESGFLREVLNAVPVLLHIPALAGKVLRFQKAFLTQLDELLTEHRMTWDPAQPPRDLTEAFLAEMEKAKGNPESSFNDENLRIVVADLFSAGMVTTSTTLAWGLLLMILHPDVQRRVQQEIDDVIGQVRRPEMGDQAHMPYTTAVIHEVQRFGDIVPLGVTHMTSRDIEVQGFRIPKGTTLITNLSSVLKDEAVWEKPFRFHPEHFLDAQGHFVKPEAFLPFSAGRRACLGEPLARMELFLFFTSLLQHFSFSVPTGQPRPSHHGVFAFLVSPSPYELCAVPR
Sequence of Kappa-type opioid receptor (Homo sapiens) (P41145 whole entry): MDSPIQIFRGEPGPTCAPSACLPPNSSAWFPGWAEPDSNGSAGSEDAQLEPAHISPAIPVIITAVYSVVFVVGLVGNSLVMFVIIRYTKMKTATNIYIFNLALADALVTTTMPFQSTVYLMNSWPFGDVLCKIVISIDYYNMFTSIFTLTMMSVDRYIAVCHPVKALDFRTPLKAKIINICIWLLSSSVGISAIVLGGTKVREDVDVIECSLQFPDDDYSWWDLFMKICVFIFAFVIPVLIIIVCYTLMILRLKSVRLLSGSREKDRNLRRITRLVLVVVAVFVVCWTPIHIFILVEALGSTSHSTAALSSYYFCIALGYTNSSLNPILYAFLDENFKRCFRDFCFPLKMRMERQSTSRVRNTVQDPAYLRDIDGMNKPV

Broadly, the EC50 is the midpoint of the concentration-response curve. The term Ki denotes a measure of affinity in units of concentration, obtained from inhibition or displacement. In general, ED50 refers to the dose at which the effect has come halfway, by size or by number of responders. What is called Kp is tissue or fluid exposure divided by exposure in the circulation. For orientation: pKb means the Kb on a negative log10 scale, so that one unit is a factor of ten. As to `CNC1CN(c2nc(N)nc3c2CCCc2ccccc2-3)C1`, the EC50 at Histamine H4 receptor [1] was 9.33 nM; on Histamine H4 receptor [26] it was 9.12 nM. Moreover, the Stability is 165 pmol/min/mg in the data set on Liver microsomes [2], 38.8 pmol/min/mg in data set [21] and 20 pmol/min/mg in the data set on Liver microsomes [30]. Besides, the inhibition constant Ki at Histamine H4 receptor [3] was 11 nM; on Histamine H4 receptor [22], 3.63 nM. Moreover, the fraction unbound in [4] is 0.52; in data set [12] it was 0.56. The outcome in [5], in data set [7], in [17], in data set [23], in [24] and in data set [25] was inactive. The result in data set [27] was inactive. In addition, the Ratio Ki in [6] is 940; in [11], above 610; in the data set listed under Homo sapiens, 93; in data set [13] it was 215; in data set [15], above 860; in [19], 235. Besides, the Ratio Ki in [20] turned out to be 123; in data set [28], 310. In addition, the ED50 amounted to 25 µmol/kg in the data set on Mus musculus [8] and 17 µmol/kg in the data set on Mus musculus [9]. In [10], the Kp at 0.5 h is 5.8. Moreover, the Activity result at Cytochrome P450 2C9, at Cytochrome P450 3A4 and at Cytochrome P450 2D6 was “Not Active” in each case. Besides, the figures for the Efficacy in the data set on Rattus norvegicus [14], with Rattus norvegicus [16] and in the data set with Rattus norvegicus [29] were 36%, 39% and 78%, respectively. The negative-log Kb (pKb) on Histamine H4 receptor [18] is 8.05. For the same molecule, the result with BMMC was Active.

With `NCC1(CC(=O)O)CCCCC1` [GABAPENTIN], the Efficacy in the data set on Rattus norvegicus [31] worked out at 62%.
